# Measurements: PubChem BioAssay AID330 (DTP/NCI, 2004)
# Values joined by “and” are separate entries in the source; they are usually repeats but may differ in a detail not shown here. Equal values may be shown once. Inconclusive results and toxic doses are left out.
# Test system: P388 leukemia ip, CD2F1 mice, survival T/C
# Assay: NCI In Vivo Anticancer Drug Screen. Data for tumor model P388 Leukemia (intraperitoneal) in CD2F1 (CDF1) mice
# Details: endpoint: median survival time, higher = longer survival
# Procedure, shortened: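 Mice carrying the transplanted tumor received test compound or vehicle. Survival was recorded in each group, and the value is the treated-group measurement divided by that of the vehicle-treated control group.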
# [1] = dose: 50.0 mg/kg/injection, schedule: Q01DX009 (ip), vehicle: saline with Tween-80
# [2] = dose: 100.0 mg/kg/injection, schedule: Q01DX009 (ip), vehicle: saline with Tween-80
# [3] = dose: 200.0 mg/kg/injection, schedule: Q01DX009 (ip), vehicle: saline with Tween-80
# [4] = dose: 50.0 mg/kg/injection, schedule: Q01DX005 (ip), vehicle: Klucel (hydroxypropylcellulose) (HPC)
# [5] = dose: 100.0 mg/kg/injection, schedule: Q01DX005 (ip), vehicle: Klucel (hydroxypropylcellulose) (HPC)
# [6] = dose: 200.0 mg/kg/injection, schedule: Q01DX005 (ip), vehicle: Klucel (hydroxypropylcellulose) (HPC)
# [7] = dose: 50.0 mg/kg/injection, schedule: Q01DX009 (ip), vehicle: saline
# [8] = dose: 100.0 mg/kg/injection, schedule: Q01DX009 (ip), vehicle: saline
# [9] = dose: 60.0 mg/kg/injection, schedule: Q01DX005 (ip), vehicle: saline with Tween-80
# [10] = dose: 100.0 mg/kg/injection, schedule: Q04DX003 (ip), vehicle: saline with Tween-80
# [11] = dose: 200.0 mg/kg/injection, schedule: Q04DX003 (ip), vehicle: saline with Tween-80
# [12] = dose: 120.0 mg/kg/injection, schedule: Q01DX005 (ip), vehicle: saline with Tween-80
# [13] = dose: 240.0 mg/kg/injection, schedule: Q01DX005 (ip), vehicle: saline with Tween-80
# [14] = dose: 50.0 mg/kg/injection, schedule: Q01DX009 (ip), vehicle: Klucel (hydroxypropylcellulose) (HPC)
# [15] = dose: 100.0 mg/kg/injection, schedule: Q01DX009 (ip), vehicle: Klucel (hydroxypropylcellulose) (HPC)
# [16] = dose: 200.0 mg/kg/injection, schedule: Q01DX009 (ip), vehicle: Klucel (hydroxypropylcellulose) (HPC)
# [17] = dose: 50.0 mg/kg/injection, schedule: Q01DX005 (ip), vehicle: saline with Tween-80
# [18] = dose: 100.0 mg/kg/injection, schedule: Q01DX005 (ip), vehicle: saline with Tween-80
# [19] = dose: 200.0 mg/kg/injection, schedule: Q01DX005 (ip), vehicle: saline with Tween-80
# [20] = dose: 6.25 mg/kg/injection, schedule: Q01DX009 (ip), vehicle: saline with Tween-80
# [21] = dose: 12.5 mg/kg/injection, schedule: Q01DX009 (ip), vehicle: saline with Tween-80
# [22] = dose: 25.0 mg/kg/injection, schedule: Q01DX009 (ip), vehicle: Klucel (hydroxypropylcellulose) (HPC)
# [23] = dose: 25.0 mg/kg/injection, schedule: Q01DX009 (ip), vehicle: saline with Tween-80
# [24] = dose: 50.0 mg/kg/injection, schedule: Q04DX003 (ip), vehicle: saline with Tween-80
# [25] = dose: 6.25 mg/kg/injection, schedule: Q01DX009 (ip), vehicle: Klucel (hydroxypropylcellulose) (HPC)
# [26] = dose: 12.5 mg/kg/injection, schedule: Q01DX009 (ip), vehicle: Klucel (hydroxypropylcellulose) (HPC)
compound,measurement,setting,value
Cc1nnc2n1N=C1CC(C)(C)CC(=O)C1S2 (stereo unspecified),T/C,[1],101 % of control
same,T/C,[2],102 % of control
same,T/C,[3],94 % of control
CCCc1cc2c(=O)c(C(=O)OC)c[nH]c2cc1N(CC)CC,T/C,[4],96 % of control
same,T/C,[5],100 % of control
same,T/C,[6],104 % of control
CN1CCN(c2ccncc2S(=O)(=O)N2CCOCC2)CC1,T/C,[7],97 % of control
same,T/C,[8],95 % of control
O=NN(c1ccc(Br)cc1)c1ccccn1,T/C,"dose: 25.0 mg/kg/injection, schedule: Q01DX009 (ip), vehicle: other",102 % of control
same,T/C,"dose: 50.0 mg/kg/injection, schedule: Q01DX009 (ip), vehicle: other",109 % of control
same,T/C,[1],100 % of control
same,T/C,"dose: 100.0 mg/kg/injection, schedule: Q01DX009 (ip), vehicle: other",109 % of control
same,T/C,[2],100 % of control
same,T/C,"dose: 200.0 mg/kg/injection, schedule: Q01DX009 (ip), vehicle: other",114 % of control
same,T/C,[3],97 % of control
same,T/C,"dose: 400.0 mg/kg/injection, schedule: Q01DX009 (ip), vehicle: other",112 % of control
CCCCc1ccc2nc(C)cc(N/N=C/c3ccc(OC)c4ccccc34)c2c1,T/C,"dose: 12.5 mg/kg/injection, schedule: Q01DX005 (ip), vehicle: Klucel (hydroxypropylcellulose) (HPC)",100 % of control
same,T/C,"dose: 25.0 mg/kg/injection, schedule: Q01DX005 (ip), vehicle: Klucel (hydroxypropylcellulose) (HPC)",98 % of control
same,T/C,[4],87 % of control
same,T/C,[6],100 % of control
CC1COS(=O)(=O)CS(=O)(=O)O1 (stereo unspecified),T/C,[9],100 % of control
CC(=O)C1=CN(C)c2ccccc2[S@@]1=O,T/C,[4],103 % of control
same,T/C,[5],100 % of control
same,T/C,[6],100 % of control
CCN(CC)c1nc(Cl)nc(NC(C)C)n1,T/C,[10],100 % of control
same,T/C,[11],95 % of control
COC(=O)c1cccc2c1OCO2,T/C,[2],100 % of control
same,T/C,[3],100 % of control
same,T/C,"dose: 400.0 mg/kg/injection, schedule: Q01DX009 (ip), vehicle: saline with Tween-80",100 % of control
COc1cc(C2c3cc4c(cc3OC3(O)COC(=O)C23)OCO4)cc(OC)c1OC (stereo unspecified),T/C,[9],88 % of control
same,T/C,[12],91 % of control
same,T/C,[13],86 % of control
O=CNNC(=O)C(Cl)Cl,T/C,[14],107 % of control
same,T/C,[15],107 % of control
same,T/C,[16],112 % of control
NS(=O)(=O)Cc1noc2ccc(F)cc12,T/C,[17],93 % of control
same,T/C,[18],104 % of control
same,T/C,[19],103 % of control
CCCCCCCCCCCCCCCCCCCCCC(=O)OC,T/C,[1],100 % of control
same,T/C,[2],100 % of control
same,T/C,[10],91 % of control
same,T/C,[3],100 % of control
same,T/C,[11],87 % of control
OCC1CCC(O)C=C2CCCC21 (stereo unspecified),T/C,"dose: 60.0 mg/kg/injection, schedule: Q01DX005 (ip), vehicle: Klucel (hydroxypropylcellulose) (HPC)",94 % of control
same,T/C,"dose: 120.0 mg/kg/injection, schedule: Q01DX005 (ip), vehicle: Klucel (hydroxypropylcellulose) (HPC)",103 % of control
same,T/C,"dose: 240.0 mg/kg/injection, schedule: Q01DX005 (ip), vehicle: Klucel (hydroxypropylcellulose) (HPC)",105 % of control
Cc1onc(-c2c(F)cccc2Cl)c1C(=O)OCc1c(F)cccc1Cl,T/C,[9],99 % of control
same,T/C,[12],97 % of control
same,T/C,[13],97 % of control
O=c1ccc2ccccc2o1,T/C,"dose: 3.12 mg/kg/injection, schedule: Q01DX009 (ip), vehicle: saline with Tween-80",101 % of control and 108 % of control and 94 % of control
same,T/C,[20],100 % of control and 101 % of control and 110 % of control
same,T/C,[21],103 % of control and 110 % of control (2×)
same,T/C,[22],100 % of control and 105 % of control
same,T/C,[23],100 % of control and 110 % of control and 120 % of control
same,T/C,"dose: 25.0 mg/kg/injection, schedule: Q04HX002 (ip), vehicle: water",100 % of control
same,T/C,[14],105 % of control and 106 % of control and 107 % of control
same,T/C,"dose: 50.0 mg/kg/injection, schedule: Q04HX002 (ip), vehicle: water",104 % of control
same,T/C,[15],102 % of control and 105 % of control and 108 % of control
same,T/C,[2],103 % of control and 114 % of control
same,T/C,"dose: 100.0 mg/kg/injection, schedule: Q04HX002 (ip), vehicle: saline with Tween-80",91 % of control
same,T/C,"dose: 100.0 mg/kg/injection, schedule: Q04HX002 (ip), vehicle: water",100 % of control
same,T/C,[16],119 % of control and 94 % of control
same,T/C,"dose: 200.0 mg/kg/injection, schedule: Q04HX002 (ip), vehicle: saline with Tween-80",59 % of control
same,T/C,"dose: 200.0 mg/kg/injection, schedule: Q04HX002 (ip), vehicle: water",101 % of control
same,T/C,"dose: 400.0 mg/kg/injection, schedule: Q04HX002 (ip), vehicle: saline with Tween-80",46 % of control
COc1ccc(Cl)cc1NC(=O)c1ccco1,T/C,[9],96 % of control
same,T/C,[12],99 % of control
same,T/C,[13],98 % of control
CN1CCN(c2nc3cccnc3s2)CC1,T/C,"dose: 25.0 mg/kg/injection, schedule: Q04DX003 (ip), vehicle: saline with Tween-80",106 % of control
same,T/C,[24],101 % of control
same,T/C,[10],100 % of control
O=C1C(N2CCCCC2)=C(N2CC2)C(=O)C(N2CCCCC2)=C1N1CC1,T/C,"dose: 2.5 mg/kg/injection, schedule: Q01DX009 (ip), vehicle: saline",112 % of control
same,T/C,"dose: 10.0 mg/kg/injection, schedule: Q01DX009 (ip), vehicle: saline",177 % of control
NNc1n[nH]c(=S)n1N,T/C,[25],94 % of control
same,T/C,[20],109 % of control
same,T/C,[26],94 % of control
same,T/C,[21],100 % of control
same,T/C,[22],106 % of control
same,T/C,[23],104 % of control
NC(=O)C1C(C(N)=O)C2C3C=CC(C4C(=O)NC(=O)C34)C12 (stereo unspecified),T/C,"dose: 100.0 mg/kg/injection, schedule: Q04DX002 (ip), vehicle: saline with Tween-80",102 % of control
same,T/C,"dose: 200.0 mg/kg/injection, schedule: Q04DX002 (ip), vehicle: saline with Tween-80",109 % of control
same,T/C,"dose: 400.0 mg/kg/injection, schedule: Q04DX002 (ip), vehicle: saline with Tween-80",111 % of control
CCC1SC(=S)NC1=O (stereo unspecified),T/C,[17],92 % of control
same,T/C,[18],92 % of control
CCOC(=O)C(=O)Cc1nc2ccccc2nc1C,T/C,[9],93 % of control
same,T/C,[12],97 % of control
COc1ccc(CCn2cnn3c(=O)c4ccccc4nc3c2=O)cc1OC,T/C,[9],99 % of control
same,T/C,[12],92 % of control
CC(C)(C)NC(=S)N/N=C/c1ccccc1O,T/C,[17],108 % of control
same,T/C,[18],109 % of control
same,T/C,[19],107 % of control
CN(C)[C@@H]1C(=O)C(C(=O)NCNC2(C(=O)O)CCCC2)=C(O)[C@@]2(O)C(=O)C3=C(O)c4c(O)cccc4[C@@](C)(O)[C@H]3C[C@@H]12,T/C,[7],103 % of control
same,T/C,[8],95 % of control
same,T/C,"dose: 100.0 mg/kg/injection, schedule: Q01DX009 (ip), vehicle: suspension in saline",91 % of control
same,T/C,"dose: 200.0 mg/kg/injection, schedule: Q01DX009 (ip), vehicle: saline",106 % of control
same,T/C,"dose: 200.0 mg/kg/injection, schedule: Q01DX009 (ip), vehicle: suspension in saline",93 % of control
same,T/C,"dose: 400.0 mg/kg/injection, schedule: Q01DX009 (ip), vehicle: saline",98 % of control
same,T/C,"dose: 400.0 mg/kg/injection, schedule: Q01DX009 (ip), vehicle: suspension in saline",111 % of control
CCCCCCCCCCCC(C)NCc1ccccc1 (stereo unspecified),T/C,[25],103 % of control
same,T/C,[26],112 % of control
same,T/C,[22],99 % of control
same,T/C,[14],105 % of control
CC(=O)N1C(=O)C2C3C=CC(C3)C2C(=O)N1C(C)=O (stereo unspecified),T/C,[20],96 % of control
same,T/C,[21],97 % of control
same,T/C,[23],102 % of control
same,T/C,[1],106 % of control and 86 % of control
O=c1[nH]cc(S)c(=O)[nH]1,T/C,[23],105 % of control
same,T/C,[1],100 % of control
same,T/C,[24],100 % of control
same,T/C,[2],110 % of control
same,T/C,[10],100 % of control
